Source: article PMC9499386, “New Inhibitors of the Human p300/CBP Acetyltransferase Are Selectively Active against the Arabidopsis HAC Proteins” (International Journal of Molecular Sciences, 2022)

Columns and labels:
[1] = biological target: T1, HAC1 catalytic domain (recombinant HAC1) (Arabidopsis thaliana, UniProt Q9C5X9); assay: colorimetric antibody-based HAT activity assay (EpiGentek P-4003), […] nm; type: biochemical; details: kit HAT substrate as acetyl acceptor, 45 min at 37 °C; partially purified enzyme
T1 construct: HAT catalytic domain aa 1081-1517 (nt 3241-4551 of CDS), C-terminal 6xHis tag, pET28a, E. coli BL21(DE3), partially purified, 52 kDa

[2] = biological target: T1, HAC1 catalytic domain (recombinant HAC1); assay: as above; type: biochemical

T1 sequence (Q9C5X9 1081-1517): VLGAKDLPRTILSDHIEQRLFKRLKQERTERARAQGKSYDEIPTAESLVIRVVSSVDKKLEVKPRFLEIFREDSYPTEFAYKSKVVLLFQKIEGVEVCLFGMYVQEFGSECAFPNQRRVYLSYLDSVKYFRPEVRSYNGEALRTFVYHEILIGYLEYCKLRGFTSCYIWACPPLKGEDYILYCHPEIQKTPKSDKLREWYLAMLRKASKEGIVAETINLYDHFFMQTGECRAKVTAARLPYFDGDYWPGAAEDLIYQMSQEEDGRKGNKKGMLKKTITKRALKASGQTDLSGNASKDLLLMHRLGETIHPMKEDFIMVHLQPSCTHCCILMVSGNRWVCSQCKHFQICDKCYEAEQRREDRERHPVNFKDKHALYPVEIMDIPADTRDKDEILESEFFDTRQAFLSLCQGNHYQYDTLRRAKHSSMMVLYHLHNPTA

Row | inhibition at 6 µM [2] | SMILES | colorimetric antibody-based HAT activity assay (EpiGentek P-4003), 450 nm [1]
1 |  | CC(=O)SCCNC(=O)CCNC(=O)[C@H](O)C(C)(C)COP(=O)(O)OP(=O)(O)OC[C@H]1O[C@@H](n2cnc3c(N)ncnc32)[C@H](O)[C@@H]1OP(=O)(O)O [acetyl-CoA] | strip wells were incubated with acetyl-CoA and partially purified HAC1 catalytic domain
2 | 83% | O=C1C(Cc2ccc(O)c(Br)c2)CCCC1Cc1ccc(O)c(Br)c1 (centres unmarked) [2c, 2,6-Bis(3-bromo-4-hydroxybenzyl)cyclohexanone] | 
